Measured values published in patent US9993494B2, “Compositions and methods for treating fibrotic disease” (eFFECTOR Therapeutics, Inc., priority 2014, dated 2018).

Key:
[1] = tested on: normal human lung fibroblasts; assay: Western blot of α-smooth muscle actin (α-SMA) in TGFβ-treated fibroblasts; assay type: cell-based; conditions: fibroblasts treated with TGFβ, 24 hours, western blot
Protocol: (§1) Briefly, normal human lung fibroblasts (Lonza #CC-2512; cell passage numbers 2 through 5 were used for all experiments) were seeded (Day 0) and cultured in Dulbecco's modified Eagle medium (DMEM) supplemented with 10% fetal bovine serum (FBS), penicillin, streptomycin and glutamax (Invitrogen) at 37° C. in a humidified incubator with 5% CO2 overnight. On Day 1, cells were harvested, washed with phosphate buffered saline (PBS), and then incubated for 48 hours in fresh serum-free DMEM supplemented with penicillin, streptomycin, and glutamax.
(§2) After this 24 hour incubation, procollagen type 1 levels were measured by collecting culture media, centrifuging to pellet cellular debris, and stored at −80° C. Procollagen Type 1 C-Peptide (PIPC) was quantified using the (PIP) EIA kit (Clontech, Cat. No. MK101) according to manufacturer's instructions. The TGFβ-treated fibroblasts of this example were examined by ribosomal profiling (about 6×10^6 cells/10 cm plate) and western blot analysis (about 1×10^6 cells/well of a 6-well plate).
TGFβ-dependent activation of the PI3K/Akt/mTOR and ERK pathways were also examined by western blot analysis (about 1×10^6 cells/well from a 6-well plate). Briefly, cells were washed with PBS and lysed in 1× cell lysis buffer (Cell Signaling Technology, Inc., Danvers, Mass.) for 15 minutes at 4° C. Lysates were briefly sonicated, clarified by centrifugation for 15 minutes at 14,000 rpm, and then supernatants were collected. Protein concentration in the soluble fraction was determined by BCA protein assay (Thermo Scientific, Rockford, Ill.). Samples of protein (20 μg) were resolved on 4-20% Bis-Tris gradient gel (Invitrogen, Carlsbad, Calif.) and transferred to nitrocellulose membrane. The resulting blots were blocked for 1 hour at room temperature with Odyssey blocking solution (LI-COR) and then incubated with primary antibodies at 4° C. overnight. The following day, each blot was washed three times for 10 minutes in TBST, and then incubated with goat anti-rabbit fluorescent conjugated secondary antibody (IRDye 800 CW at 1:20,000; LI-COR) for 1 hour at room temperature. The blots were washed and scanned, and then specific proteins were detected by using the LI-COR Odyssey infrared imager. The following antibodies were used at 1:1000 dilution: anti-α-actin (Sigma #A2547), anti-phospho-4EBP(Ser65), anti-phospho-rpS6(Ser235/236)(#4858), anti-phospho-ERK1/2(Thr202/Tyr204)(#4370), anti-phospho-p70S6K(Thr421/Ser424)(#9204), anti-phospho-pAKT(Ser473), anti-phospho-MNK(Thr197/202), and anti-β-actin (#4970). Unless otherwise indicated, the antibodies were from Cell Signaling Technology, Inc. (Danvers, Mass.).
as §1, with “(Lonza;” for “(Lonza #CC-2512;”, “CO2 conditions” for “CO2”, “glutamax. On Day 3, cells were harvested, resuspended in fresh serum-free DMEM containing silvestrol (1, 5, 10, 75, 100, 500, or 1000 nM) and 10 ng/ml TGFβ, and cultured for 24 hours. Controls included untreated cells and cells treated with only TGFβ.” for “glutamax.”
as §2, with “kit (Clontech)” for “kit (Clontech, Cat. No. MK101)”, “example are” for “example were”

[2] = tested on: normal human lung fibroblasts; assay: Procollagen Type 1 C-Peptide (PIPC) EIA in culture media of TGFβ-treated fibroblasts; assay type: cell-based; conditions: fibroblasts treated with TGFβ, 24 hours, procollagen ELISA
Protocol: as §1, §2
as §1, with “(Lonza;” for “(Lonza #CC-2512;”, “CO2 conditions” for “CO2”, “glutamax. On Day 3, cells were harvested, resuspended in fresh serum-free DMEM containing silvestrol (1, 5, 10, 75, 100, 500, or 1000 nM) and 10 ng/ml TGFβ, and cultured for 24 hours. Controls included untreated cells and cells treated with only TGFβ.” for “glutamax.”
as §2, with “kit (Clontech)” for “kit (Clontech, Cat. No. MK101)”, “example are” for “example were”
The levels of α-SMA and procollagen type 1, markers of fibroblast transdifferentiation into myofibroblasts and a surrogate for fibrotic disease progression, were measured after a 24 hour incubation of fibroblasts in the presence or absence of TGFβ sieIF4A1 or siCont. The knockdown efficiency was determined by quantitating the eIF4A mRNA level by qPCR (data not shown) and assessing the protein level by western analysis (see FIG. 11).

Compound | % Renormalization α-SMA [1] | % Renormalization Collagen [2]
Nc1nccc2c1ncn2[C@@H]1O[C@H](CO)[C@@H](O)[C@H]1O [DZA, 3-deaza-adenosine] | + (+ = 0-30%) | + (+ = 0-30%)
O=C(Nc1ccc(Cl)cc1)Nc1ccc2nonc2c1 [BOCPU, 1-(benzo[c][1,2,5]oxadiazol-5-yl)-3-(4-chlorophenyl)urea] | +++ (+++ = >60%) | –
N=C(N)NCCCCCCCN [GC7, N1-guanyl-1,7-diaminoheptane] | + (+ = 0-30%) | + (+ = 0-30%)
